Read-outs that look alike come from different tables or passages of the source. Positions of bridges follow the written chain, without caps; N, C: chain ends. Residues, ends and D or L forms follow the SMILES beside them.
Key:
Type in all cases: binding
FGF-R4 ECD = target: T1, FGF-R4 ECD (Homo sapiens, UniProt P22455); assay: single concentration BLI of crude peptides; details: read-out: KD (4)
T1 construct: DNA constructs for the extracellular domain (ECD) of human FGF-; HPC4 (C); made in house; host or cells: HEK 293-6E
T1 sequence (P22455 22-369 limits assumed): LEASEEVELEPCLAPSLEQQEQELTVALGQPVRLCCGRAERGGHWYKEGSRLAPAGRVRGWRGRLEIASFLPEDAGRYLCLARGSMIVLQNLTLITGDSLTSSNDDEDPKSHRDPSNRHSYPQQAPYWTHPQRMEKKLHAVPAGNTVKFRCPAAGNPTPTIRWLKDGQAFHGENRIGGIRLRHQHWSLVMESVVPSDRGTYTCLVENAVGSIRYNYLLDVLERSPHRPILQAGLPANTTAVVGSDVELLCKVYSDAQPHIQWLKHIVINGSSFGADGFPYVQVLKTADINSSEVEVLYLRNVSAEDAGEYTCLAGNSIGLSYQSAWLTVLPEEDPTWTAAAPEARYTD
Experimental: (§1) KD affinity binding measurements were obtained by biolayer interferometry (BLI) instruments (Fortebio Octet HTX, or Sartorius Octet RH16 using either 8 or 16 channel mode.
For single concentration binding experiments, 50 μM peptide stocks in folding buffer were diluted 1:50 in mRNA display selection buffer (PBS pH7.4 supplemented with 0.05% Tween-20 and 0.01% BSA) in either a 96 well black plate, or a 384 well tilted bottom microplate (ForteBio). Biotinylated FGF-R protein was loaded onto Streptavidin-functionalised biosensors (ForteBio) and immersed into ~1 μM peptide to obtain association kinetics curves. Dissociation kinetics curves were obtained by subsequent immersion of ligand-associated loaded sensors into a 1:50 dilution of folding buffer in mRNA display selection buffer. Fitted KD data was adjusted for concentration as determined by UPLC-CAD. […]

FGF-R1C ECD = target: T2, FGF-R1C ECD (Homo sapiens, UniProt P11362); assay: biochemical; parameters: DNA constructs for the extracellular domain (ECD) of human FGF-; HPC4 (C); made in house; host or cells: HEK 293-6E
T2 sequence (P11362 22-376 limits assumed): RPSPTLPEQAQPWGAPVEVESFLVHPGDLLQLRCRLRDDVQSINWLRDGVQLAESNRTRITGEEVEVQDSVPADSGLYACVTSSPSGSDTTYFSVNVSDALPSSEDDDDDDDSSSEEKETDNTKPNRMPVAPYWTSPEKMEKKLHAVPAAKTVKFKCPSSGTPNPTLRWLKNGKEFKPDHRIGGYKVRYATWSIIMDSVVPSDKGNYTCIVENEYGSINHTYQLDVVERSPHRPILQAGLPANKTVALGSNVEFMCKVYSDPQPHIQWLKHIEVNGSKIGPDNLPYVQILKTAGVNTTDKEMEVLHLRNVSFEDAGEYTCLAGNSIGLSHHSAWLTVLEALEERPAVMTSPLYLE
Experimental: as §1
(§2) For single concentration binding experiments, 50 μM peptide stocks in folding buffer were diluted 1:50 in mRNA display selection buffer (PBS pH7.4 supplemented with 0.05% Tween-20 and 0.01% BSA) in either a 96 well black plate, or a 384 well tilted bottom microplate (ForteBio). Biotinylated FGF-R protein was loaded onto Streptavidin-functionalised biosensors (ForteBio) and immersed into ~1 μM peptide to obtain association kinetics curves. Dissociation kinetics curves were obtained by subsequent immersion of ligand-associated loaded sensors into a 1:50 dilution of folding buffer in mRNA display selection buffer. Fitted KD data was adjusted for concentration as determined by UPLC-CAD.
(§3) For accurate multi-concentration KD determination, dilution series of each peptide were made, and association and dissociation kinetics curves were obtained as above for each concentration to fit a multi-point KD binding model. Data collection and analysis was performed using the Octet Instrument Control […]
(§4) concentration assay kinetics curves shown in supplementary Figure S 19-24.

FGF-R3C ECD = target: T3, FGF-R3C ECD (Homo sapiens, UniProt P22607); assay: biochemical; parameters: DNA constructs for the extracellular domain (ECD) of human FGF-; HPC4 (C); made in house; host or cells: HEK 293-6E
T3 sequence (P22607 23-375 limits assumed): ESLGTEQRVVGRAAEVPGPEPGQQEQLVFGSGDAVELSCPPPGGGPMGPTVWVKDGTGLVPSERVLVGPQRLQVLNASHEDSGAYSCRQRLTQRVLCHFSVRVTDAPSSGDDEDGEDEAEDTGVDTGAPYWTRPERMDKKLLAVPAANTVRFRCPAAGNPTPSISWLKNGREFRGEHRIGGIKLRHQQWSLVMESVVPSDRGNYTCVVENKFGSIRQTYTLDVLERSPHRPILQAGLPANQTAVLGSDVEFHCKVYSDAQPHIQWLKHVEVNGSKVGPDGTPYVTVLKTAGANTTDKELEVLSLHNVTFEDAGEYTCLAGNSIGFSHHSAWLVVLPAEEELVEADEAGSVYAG
Experimental: as §1, §2, §3, §4

[1] = crude NNK peptides, single concentration BLI (Table S3)
[2] = crude T18 selection 1 (1:1:1) peptides, single concentration BLI (Table S4)

Row | Structure (SMILES) | Kd (FGF-R4 ECD; [1]) [µM] | Kd (FGF-R1C ECD) [µM] | Kd (FGF-R3C ECD) [µM] | Kd (FGF-R4 ECD; [2]) [µM]
1 | CC[C@H](C)[C@@H]1NC(=O)[C@H](Cc2ccc(O)cc2)NC(=O)[C@H](Cc2c[nH]cn2)NC(=O)[C@@H](NC(=O)[C@H](CCSC)NC(C)=O)CSSC[C@@H](C(=O)NCC(=O)N[C@@H](CO)C(=O)NCC(=O)N[C@@H](CO)C(=O)N[C@@H](CC(=O)O)C(=O)N[C@@H](Cc2ccc(O)cc2)C(=O)N[C@@H](CCCCN)C(=O)N[C@@H](CC(=O)O)C(=O)N[C@@H](CC(=O)O)C(=O)N[C@@H](CC(=O)O)C(=O)N[C@@H](CC(=O)O)C(=O)N[C@@H](CCCCN)C(N)=O)NC(=O)[C@H](CC(C)C)NC(=O)[C@H](Cc2c[nH]c3ccccc23)NC(=O)[C@H](CC(=O)O)NC(=O)[C@H](CO)NC1=O (Ac-MCHYISDWLCGSGSDYKDDDDK-NH2; disulfide 2-10) | > 10 | > 10 | > 10 | 
2 | CC[C@H](C)[C@@H]1NC(=O)[C@H](Cc2c[nH]c3ccccc23)NC(=O)[C@H](Cc2c[nH]c3ccccc23)NC(=O)[C@H](CCCNC(=N)N)NC(=O)[C@H](C)NC(=O)[C@H](Cc2ccc(O)cc2)NC(=O)[C@H](CCC(N)=O)NC(=O)[C@H](C)NC(=O)[C@H](CCCNC(=N)N)NC(=O)[C@H]([C@@H](C)CC)NC(=O)[C@H](CO)NC(=O)[C@H](CC(=O)O)NC(=O)[C@@H](NC(=O)[C@H](CCSC)NC(C)=O)CSSC[C@@H](C(=O)NCC(=O)N[C@@H](CO)C(=O)NCC(=O)N[C@@H](CO)C(=O)N[C@@H](CC(=O)O)C(=O)N[C@@H](Cc2ccc(O)cc2)C(=O)N[C@@H](CCCCN)C(=O)N[C@@H](CC(=O)O)C(=O)N[C@@H](CC(=O)O)C(=O)N[C@@H](CC(=O)O)C(=O)N[C@@H](CC(=O)O)C(=O)N[C@@H](CCCCN)C(N)=O)NC1=O (Ac-MCDSIRAQYARWWICGSGSDYKDDDDK-NH2; disulfide 2-15) |  | > 10 | > 10 | 0.183
3 | CC[C@H](C)[C@@H]1NC(=O)[C@H](CCCCN)NC(=O)[C@H](Cc2ccc(O)cc2)NC(=O)[C@H](CC(C)C)NC(=O)[C@H]([C@@H](C)CC)NC(=O)[C@H]([C@@H](C)CC)NC(=O)[C@H](CC(N)=O)NC(=O)[C@@H](NC(=O)[C@H](CCSC)NC(C)=O)CSSC[C@@H](C(=O)NCC(=O)N[C@@H](CO)C(=O)NCC(=O)N[C@@H](CO)C(=O)N[C@@H](CC(=O)O)C(=O)N[C@@H](Cc2ccc(O)cc2)C(=O)N[C@@H](CCCCN)C(=O)N[C@@H](CC(=O)O)C(=O)N[C@@H](CC(=O)O)C(=O)N[C@@H](CC(=O)O)C(=O)N[C@@H](CC(=O)O)C(=O)N[C@@H](CCCCN)C(N)=O)NC(=O)[C@H](CCCNC(=N)N)NC(=O)[C@H](CC(N)=O)NC(=O)[C@H](CCCCN)NC(=O)[C@H](CCSC)NC1=O (Ac-MCNIILYKIMKNRCGSGSDYKDDDDK-NH2; disulfide 2-14) | > 10 | > 10 | > 10 | 
4 | CC[C@H](C)[C@@H]1NC(=O)[C@H](Cc2ccccc2)NC(=O)[C@@H]2CCCN2C(=O)[C@H](CC(C)C)NC(=O)[C@H](Cc2ccccc2)NC(=O)[C@H](CC(C)C)NC(=O)[C@H](CC(=O)O)NC(=O)[C@H](Cc2ccccc2)NC(=O)[C@H]([C@@H](C)O)NC(=O)[C@@H](NC(=O)[C@@H](N)CCSC)CSSC[C@@H](C(=O)NCC(=O)N[C@@H](CO)C(=O)NCC(=O)N[C@@H](CO)C(=O)N[C@@H](CC(=O)O)C(=O)N[C@@H](Cc2ccc(O)cc2)C(=O)N[C@@H](CCCCN)C(=O)N[C@@H](CC(=O)O)C(=O)N[C@@H](CC(=O)O)C(=O)N[C@@H](CC(=O)O)C(=O)N[C@@H](CC(=O)O)C(=O)N[C@@H](CCCCN)C(N)=O)NC(=O)[C@H](Cc2ccccc2)NC1=O (H-MCTFDLFLPFIFCGSGSDYKDDDDK-NH2; disulfide 2-13) | > 10 | > 10 | 0.177 | 
5 | CC[C@H](C)[C@@H]1NC(=O)[C@H](Cc2ccc(O)cc2)NC(=O)[C@H](C)NC(=O)[C@H](C(C)C)NC(=O)[C@H](Cc2ccc(O)cc2)NC(=O)CNC(=O)[C@H](Cc2c[nH]cn2)NC(=O)[C@H]([C@@H](C)CC)NC(=O)[C@H]([C@@H](C)CC)NC(=O)[C@H](CO)NC(=O)[C@H](CC(C)C)NC(=O)[C@H](CC(N)=O)NC(=O)[C@@H](NC(=O)[C@H](CCSC)NC(C)=O)CSSC[C@@H](C(=O)NCC(=O)N[C@@H](CO)C(=O)NCC(=O)N[C@@H](CO)C(=O)N[C@@H](CC(=O)O)C(=O)N[C@@H](Cc2ccc(O)cc2)C(=O)N[C@@H](CCCCN)C(=O)N[C@@H](CC(=O)O)C(=O)N[C@@H](CC(=O)O)C(=O)N[C@@H](CC(=O)O)C(=O)N[C@@H](CC(=O)O)C(=O)N[C@@H](CCCCN)C(N)=O)NC1=O (Ac-MCNLSIIHGYVAYICGSGSDYKDDDDK-NH2; disulfide 2-15) |  | > 10 | > 10 | 0.001
6 | CC[C@H](C)[C@@H]1NC(=O)[C@H](CC(N)=O)NC(=O)[C@H](Cc2ccc(O)cc2)NC(=O)[C@@H](NC(=O)[C@H](CCSC)NC(C)=O)CSSC[C@@H](C(=O)NCC(=O)N[C@@H](CO)C(=O)NCC(=O)N[C@@H](CO)C(=O)N[C@@H](CC(=O)O)C(=O)N[C@@H](Cc2ccc(O)cc2)C(=O)N[C@@H](CCCCN)C(=O)N[C@@H](CC(=O)O)C(=O)N[C@@H](CC(=O)O)C(=O)N[C@@H](CC(=O)O)C(=O)N[C@@H](CC(=O)O)C(=O)N[C@@H](CCCCN)C(N)=O)NC(=O)[C@H](CCC(=O)O)NC(=O)[C@H](CCCNC(=N)N)NC(=O)[C@H](CCCNC(=N)N)NC(=O)[C@H](C(C)C)NC(=O)[C@H](Cc2ccc(O)cc2)NC(=O)[C@H](CCCCN)NC(=O)[C@H](Cc2ccc(O)cc2)NC(=O)[C@H](Cc2c[nH]c3ccccc23)NC(=O)[C@H](Cc2ccc(O)cc2)NC1=O (Ac-MCYNIYWYKYVRRECGSGSDYKDDDDK-NH2; disulfide 2-15) |  | 0.387 | > 10 | 0.001
7 | CC[C@H](C)[C@@H]1NC(=O)[C@H](CCCCN)NC(=O)[C@H](Cc2ccc(O)cc2)NC(=O)[C@H](Cc2ccc(O)cc2)NC(=O)[C@H]([C@@H](C)CC)NC(=O)[C@H](CC(C)C)NC(=O)[C@H](Cc2c[nH]cn2)NC(=O)[C@H](CCCNC(=N)N)NC(=O)[C@H](CCCCN)NC(=O)[C@@H](NC(=O)[C@H](CCSC)NC(C)=O)CSSC[C@@H](C(=O)NCC(=O)N[C@@H](CO)C(=O)NCC(=O)N[C@@H](CO)C(=O)N[C@@H](CC(=O)O)C(=O)N[C@@H](Cc2ccc(O)cc2)C(=O)N[C@@H](CCCCN)C(=O)N[C@@H](CC(=O)O)C(=O)N[C@@H](CC(=O)O)C(=O)N[C@@H](CC(=O)O)C(=O)N[C@@H](CC(=O)O)C(=O)N[C@@H](CCCCN)C(N)=O)NC(=O)[C@H](CCCNC(=N)N)NC(=O)[C@H](C)NC1=O (Ac-MCKRHLIYYKIARCGSGSDYKDDDDK-NH2; disulfide 2-14) |  | > 10 | 1.54 | 0.001
